Data on 2 compounds can be found in PMC7390918, “NVP-CGM097, an HDM2 Inhibitor, Antagonizes ATP-Binding Cassette Subfamily B Member 1-Mediated Drug Resistance” (Frontiers in Oncology, 2020).

Data set [1] has as its target T1, ABCB1 (Homo sapiens, UniProt P08183). As to the kind of experiment: biochemical.
Data set [2] addresses T1, ABCB1.

T1 sequence (P08183 whole entry): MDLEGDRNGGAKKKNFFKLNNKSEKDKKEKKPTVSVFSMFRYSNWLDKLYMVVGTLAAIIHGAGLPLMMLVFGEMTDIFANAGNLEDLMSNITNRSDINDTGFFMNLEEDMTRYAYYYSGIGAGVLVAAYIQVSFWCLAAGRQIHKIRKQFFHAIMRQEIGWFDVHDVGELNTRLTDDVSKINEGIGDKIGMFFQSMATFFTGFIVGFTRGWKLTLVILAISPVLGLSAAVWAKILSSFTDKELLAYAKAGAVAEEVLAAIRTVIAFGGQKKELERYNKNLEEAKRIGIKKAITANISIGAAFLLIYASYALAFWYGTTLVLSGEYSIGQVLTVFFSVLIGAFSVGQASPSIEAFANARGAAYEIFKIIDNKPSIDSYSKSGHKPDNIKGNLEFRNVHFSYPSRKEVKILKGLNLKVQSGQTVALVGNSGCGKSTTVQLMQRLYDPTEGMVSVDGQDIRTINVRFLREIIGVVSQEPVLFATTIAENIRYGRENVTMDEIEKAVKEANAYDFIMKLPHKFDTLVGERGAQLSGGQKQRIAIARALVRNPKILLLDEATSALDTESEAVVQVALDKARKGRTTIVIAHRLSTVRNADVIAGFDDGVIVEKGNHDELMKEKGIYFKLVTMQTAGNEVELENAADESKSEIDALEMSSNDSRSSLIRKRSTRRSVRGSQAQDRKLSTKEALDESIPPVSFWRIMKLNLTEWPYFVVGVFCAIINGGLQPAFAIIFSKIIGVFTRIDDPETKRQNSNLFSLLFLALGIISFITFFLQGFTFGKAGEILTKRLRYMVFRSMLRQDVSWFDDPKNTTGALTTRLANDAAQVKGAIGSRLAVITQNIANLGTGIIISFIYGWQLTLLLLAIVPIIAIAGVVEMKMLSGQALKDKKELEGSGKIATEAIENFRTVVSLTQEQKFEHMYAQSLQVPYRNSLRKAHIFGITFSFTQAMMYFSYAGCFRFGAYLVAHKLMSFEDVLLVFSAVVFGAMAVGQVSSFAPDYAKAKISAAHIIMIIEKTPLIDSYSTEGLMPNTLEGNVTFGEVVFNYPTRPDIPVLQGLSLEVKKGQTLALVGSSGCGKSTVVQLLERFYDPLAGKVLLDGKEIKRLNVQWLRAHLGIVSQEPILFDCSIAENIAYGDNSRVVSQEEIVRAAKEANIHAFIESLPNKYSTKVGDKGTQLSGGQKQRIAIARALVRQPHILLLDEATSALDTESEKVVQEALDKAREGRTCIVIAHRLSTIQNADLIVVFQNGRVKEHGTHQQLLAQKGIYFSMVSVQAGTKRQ

As usually defined, the EC50 is the concentration at which the effect is half-maximal. Consider `COc1cc2c(cc1OC(C)C)[C@H](c1ccc(Cl)cc1)N(c1ccc(N(C)C[C@H]3CC[C@H](N4CCN(C)C(=O)C4)CC3)cc1)C(=O)C2` [NVP-CGM097], for which, in data set [1], the EC50 came out at 450 nM. On to `CC(=O)O[C@H]1C(=O)[C@@]2(C)[C@H]([C@H](OC(=O)c3ccccc3)[C@]3(O)C[C@H](OC(=O)[C@H](O)[C@@H](NC(=O)c4ccccc4)c4ccccc4)C(C)=C1C3(C)C)[C@]1(OC(C)=O)CO[C@@H]1C[C@@H]2O` [paclitaxel], for which the “[3H]-paclitaxel accumulation and efflux in KB-C2 versus parental KB-3-1 cells” value in data set [2] is on record as “NVP-CGM097 can block the efflux activity of ABCB1-overexpressing cells, therefore, increasing intracellular paclitaxel accumulation”.
